Experimental data taken from paper PMC8778526, “N-Alkylmorpholines: Potent Dermal and Transdermal Skin Permeation Enhancers” (Pharmaceutics, 2021).
≈ marks a conversion by molar mass, not a printed value. Where two headings read alike, the source gives them in different places.

Columns and labels:
[1] = cited from earlier work
porcine skin [2] = assay: ATR-FTIR of enhancer-treated skin; conditions: skin treated 24 h with 1% enhancer in 60% PG
Procedure: ATR-FTIR is a powerful method to investigate the interactions of enhancers with SC lipids and proteins. […] Pure distilled water or 60% aqueous PG were applied as controls. […] IR spectra of the skin surface were recorded by an IR spectrometer (Nicolet iZ10, Thermo Scientific, Waltham, MA, USA), equipped with a single reflection […] ZnSe crystal (PIKE Technologies, Madison, WI, USA) at constant clamping pressure. […] Collected spectra were normalised, to reduce potential variations in the overall intensity of the spectra. Selected regions (amide I, amide II and CH2 stretching vibration bands) were fitted in Origin Pro (OriginLab, Wellesley Hills, MA, USA). The position, height and area of these selected peaks were compared among the particular spectra and the variances between peak characteristics were statistically evaluated by GraphPad Prism® software (GraphPad Software, Inc., La Jolla, CA, USA).

porcine skin [3] = assay: Entrapment of model drug in the skin after the permeation experiment; assay type: in vitro ADME; conditions: control without enhancer
Procedure: At the end of the permeation experiment, the Franz diffusion cells were dismounted and the skin surface was thoroughly washed by distilled water and PBS. The skin area, which was exposed to the donor phase, was cut out, weighed and extracted by 5 mL of the respective mobile phase by shaking for 24 h at 32 °C on a laboratory shaker. The extracts were then filtered through 0.45 µm cellulose filters to eliminate skin residues and analysed by HPLC. Drug concentration in the skin, expressed as mg of model drugs per g of the skin tissue was calculated by dividing permeants’ amounts by the respective skin weights.

[4] = Effect of enhancers on drug solubility in the donor phase; conditions: 32 °C, aqueous with cosolvent or surfactant or cyclodextrin, thermodynamic from solid
[5] = In vitro permeation experiment, Franz-type diffusion cells; conditions: pig, pH 7.4
porcine skin [6] = assay: as above; conditions: for Jss, steady-state flux of the model drug: control, pure vehicle 60% PG without enhancer; for ER, enhancement ratio: flux with/without 1% enhancer
[7] = cited from earlier work; remark: listed apart in the source
[8] = tested on: human keratinocytes HaCaT; assay: Cytotoxicity, CCK-8 viability assay; assay type: cell-based; conditions: read-out: IC50, concentration causing 50% decrease in cell viability, 24 h incubation
Procedure: Cytotoxicity of the three best enhancers (Mo10, Mo12, Mo14) was evaluated on non-malignant spontaneously immortalised human keratinocytes HaCaT (Cell Lines Service, Eppelheim, Germany). The cell line was cultivated in Dulbecco’s Modified Eagle’s Medium (DMEM, Sigma Aldrich, St. Luis, MO, USA), supplemented with 10% Fetal Bovine Serum (Sigma Aldrich, St. Luis, MO, USA) in a Petri dish at 37 °C in a humidified atmosphere of 5% CO2. Cells were subcultured two times a week. For cytotoxicity experiments, 96-well plates were seeded with cells (at a density of 10,000 cells per well) in 100 μL of culture medium and incubated at 37 °C in a humidified atmosphere of 5% CO2 for 24 h.
The enhancers were dissolved in DMEM, left in an ultrasonic bath for 15 min and then kept at 37 °C overnight. On the next day, 10 μL of the particular enhancer solution was added to 100 μL of cell suspensions, to receive final enhancer concentrations in the range of 0.9–110 μM (concentrations determined according to our preliminary testing). The cells were incubated with tested compounds for 24 h. Then, the cell viability was determined, using the Cell Counting Kit-8 (CCK-8, Sigma Aldrich, St. Luis, MO, USA). The cells were incubated with 10 μL of the CCK-8 for 2 h. Thereafter, absorbance was measured at 450 nm, using the Infinite 200 PRO microplate reader (Tecan Austria GmbH, Austria). The mean optical density (absorbance) was used to calculate the percentage of cell viability as follows: percentage of cell viability=Atreatment−Ablank/Acontrol −Ablank×100 %, where A is the absorbance.

porcine skin [9] = assay: Skin electrical impedance measurements; conditions: 1% enhancer, 48 h; control ratio set to 1
Procedure: For monitoring the skin integrity and characterisation of the permeation enhancers’ effect, the electrical impedance of each skin was measured, using an LCR 4080 multimeter (Voltcraft, Hirschau, Germany), set in parallel-equivalent mode with an alternating current frequency of 120 Hz. The measurements were carried out according to established protocols. The measurements were performed in the Franz diffusion cells. After the initial hydration and equilibration, the donor compartments were filled with 500 μL of PBS. One wire of the multimeter was placed in PBS in the acceptor, the other in the donor phase and the electrical impedance was determined. The next measurement was taken after the 48 h permeation experiment. When the donor samples ([…]) were removed, they were replaced with 500 μL PBS and the electrical impedance was re-measured. The electrical impedance ratio (EIR) was calculated for each cell as (2) EIR=EI1/EI2 where EI1 [kΩ] is electrical impedance before and EI2 [kΩ] after the 48 h treatment by the donor formulation.

porcine skin [10] = assay: Transepidermal water loss (TEWL) measurements, reversibility of enhancer effect; conditions: for TEWL after the 2 h treatment: 1% enhancer in 60% PG applied 2 h; for TEWL after the 24 h treatment: 1% enhancer in 60% PG applied 24 h; for TEWL after 20 h: after 2 h treatment and enhancer removal; for TEWL within 24 h after the enhancers' removal: after 24 h treatment; for reversibility of the effect on the skin barrier: short-term 2 h application
Procedure: The reversibility of the enhancers’ effects was studied by evaluation of the difference in the water loss through the intact and enhancer-treated skin. […] The TEWL measurements were carried out according to established protocols. The skin samples were mounted into Franz diffusion cells, with the acceptor compartments filled with PBS pH 7.4 and placed in a water bath at 32 °C to hydrate and equilibrate. At first, the base TEWL values of untreated skin samples were measured. Each of the Franz diffusion cells was removed from the water bath, dried completely with compressed air and inserted into a holder. Then the TEWL probe was placed 1.0 cm above the skin surface. The measuring time was on average 80–100 s. […] The cells were then incubated at 32 °C. The donor samples were removed after 2 h or 24 h and the skin surface was washed with 0.5 mL of PBS, gently blotted dry and thoroughly dried with compressed air. After the enhancer was removed, TEWL was measured at predetermined intervals over 42 or 50 h.

[11] = ref Drugbank, ALOGPS; cited from earlier work
[12] = donor phase: 60% PG in distilled water without enhancer

CCCCCCCCCCCCN1CCCCCC1=O [Azone, N-dodecylazacykloheptan-2-on, reference compound]
IC50 ([1]; ref 57): 49 µM | IC50 ([1]; ref 58): 117 µM | vasCH2, position of asymmetric CH2 stretching vibration (porcine skin [2]): 2921.84 ± 0.34 cm⁻¹ | vsCH2, position of symmetric CH2 stretching vibration (porcine skin [2]): 2851.16 ± 0.21 * cm^−1

CCCCCCCCCCCCOC(=O)CCCCCN(C)C [DDAK]
IC50 ([1]; ref 29): 76 µM

O=C(O)Cc1ccccc1Nc1c(Cl)cccc1Cl [DF, diclofenac sodium]
amount of the model drug in the skin (porcine skin [3]): 380.10 ± 50.52 μg·gskin^−1 | solubility at 48 h [4, 12]: 57800 ± 2550 µg/mL | Papp at 48 h [5]: 0.0275 ×10⁻⁶ cm/s | Jss, steady-state flux of the model drug (porcine skin [6]): 5.74 ± 1.04 µg·cm^−2·h^−1 | solubility in PBS ([7]; ref 27): 5150 µg/mL

COc1ccc2c(c1)c(CC(=O)O)c(C)n2C(=O)c1ccc(Cl)cc1 [IND, indomethacin]
amount of the model drug in the skin (porcine skin [3]): 32.43 ± 6.98 μg·gskin^−1 | solubility at 48 h [4, 12]: 950 ± 510 µg/mL | Papp at 48 h [5]: 0.104 ×10⁻⁶ cm/s | Jss, steady-state flux of the model drug (porcine skin [6]): 0.51 ± 0.09 µg·cm^−2·h^−1 | solubility in PBS ([7]; ref 26): 650 µg/mL (≈ 1.82 mM)

CCCCN1CC(CO)OC(OC)C1 (stereo not shown) [Mo4]
ER, enhancement ratio (porcine skin [6]; permeant DF): 1.04 | ER, enhancement ratio (porcine skin [6]; permeant IND): 5.78 | ER, enhancement ratio (porcine skin [6]; permeant TH): 1.38

CCCCCCCCN1CC(CO)OC(OC)C1 (stereo not shown) [Mo8]
ER, enhancement ratio (porcine skin [6]; permeant DF): 1.17 | ER, enhancement ratio (porcine skin [6]; permeant IND): 6.28 | ER, enhancement ratio (porcine skin [6]; permeant TH): 4.63

CCCCCCCCCCN1CC(CO)OC(OC)C1 (stereo not shown) [Mo10]
IC50 [8]: 94 ± 1.5 µM | vasCH2, position of asymmetric CH2 stretching vibration (porcine skin [2]): 2921.91 ± 0.40 cm⁻¹ | vsCH2, position of symmetric CH2 stretching vibration (porcine skin [2]): 2852.58 ± 0.71 * cm^−1 | EIR, electrical impedance ratio (before/after treatment) (porcine skin [9]): 1.66 ± 0.19 | TEWL after the 2 h treatment (porcine skin [10]): 11.7 ± 0.8 g·m^−2·h^−1 | TEWL after the 24 h treatment (porcine skin [10]): 15.6 ± 2.2 g·m^−2·h^−1 | TEWL after 20 h (porcine skin [10]): 4.8 ± 0.1 g·m^−2·h^−1 | TEWL within 24 h after the enhancers' removal (porcine skin [10]): 4.3 ± 0.7 g·m^−2·h^−1 | reversibility of the effect on the skin barrier (porcine skin [10]): reversible | ER, enhancement ratio (porcine skin [6]; permeant DF): 1.43 | ER, enhancement ratio (porcine skin [6]; permeant IND): 7.80 | ER, enhancement ratio (porcine skin [6]; permeant TH): 9.87

CCCCCCCCCCCCN1CC(CO)OC(OC)C1 (stereo not shown) [Mo12]
IC50 [8]: 41 ± 0.8 µM | vasCH2, position of asymmetric CH2 stretching vibration (porcine skin [2]): 2921.14 ± 0.61 cm⁻¹ | vsCH2, position of symmetric CH2 stretching vibration (porcine skin [2]): 2851.56 ± 0.23 * cm^−1 | EIR, electrical impedance ratio (before/after treatment) (porcine skin [9]): 1.60 ± 0.13 | TEWL after the 2 h treatment (porcine skin [10]): 8.2 ± 0.3 g·m^−2·h^−1 | TEWL after the 24 h treatment (porcine skin [10]): 18.5 ± 1.2 g·m^−2·h^−1 | TEWL after 20 h (porcine skin [10]): 3.2 ± 0.3 g·m^−2·h^−1 | TEWL within 24 h after the enhancers' removal (porcine skin [10]): 9.5 ± 0.1 g·m^−2·h^−1 | reversibility of the effect on the skin barrier (porcine skin [10]): reversible | ER, enhancement ratio (porcine skin [6]; permeant DF): 1.81 | ER, enhancement ratio (porcine skin [6]; permeant IND): 10.01 | ER, enhancement ratio (porcine skin [6]; permeant TH): 14.53

CCCCCCCCCCCCCCN1CC(CO)OC(OC)C1 (stereo not shown) [Mo14]
IC50 [8]: 41.5 ± 1.5 µM | vasCH2, position of asymmetric CH2 stretching vibration (porcine skin [2]): 2919.48 ± 0.42 cm⁻¹ | vsCH2, position of symmetric CH2 stretching vibration (porcine skin [2]): 2850.74 ± 0.14 cm⁻¹ | EIR, electrical impedance ratio (before/after treatment) (porcine skin [9]): 1.64 ± 0.14 | TEWL after the 2 h treatment (porcine skin [10]): 9.0 ± 0.4 g·m^−2·h^−1 | TEWL after the 24 h treatment (porcine skin [10]): 18.1 ± 0.8 g·m^−2·h^−1 | TEWL after 20 h (porcine skin [10]): 4.6 ± 0.7 g·m^−2·h^−1 | TEWL within 24 h after the enhancers' removal (porcine skin [10]): 4.7 ± 0.1 g·m^−2·h^−1 | reversibility of the effect on the skin barrier (porcine skin [10]): reversible | ER, enhancement ratio (porcine skin [6]; permeant DF): 2.58 | ER, enhancement ratio (porcine skin [6]; permeant IND): 9.10 | ER, enhancement ratio (porcine skin [6]; permeant TH): 8.67

CCCCCCCCC=CCCCCCCCCN1CC(CO)OC(OC)C1 (stereo not shown) [Mo18/1]
vasCH2, position of asymmetric CH2 stretching vibration (porcine skin [2]): 2920.35 ± 0.36 cm⁻¹ | vsCH2, position of symmetric CH2 stretching vibration (porcine skin [2]): 2850.76 ± 0.15 cm⁻¹ | ER, enhancement ratio (porcine skin [6]; permeant DF): 1.94 | ER, enhancement ratio (porcine skin [6]; permeant IND): 3.94 | ER, enhancement ratio (porcine skin [6]; permeant TH): 5.01

CCCCCCCCCCCCCCCCCCN1CC(CO)OC(OC)C1 (stereo not shown) [Mo18]
ER, enhancement ratio (porcine skin [6]; permeant DF): 1.14 | ER, enhancement ratio (porcine skin [6]; permeant IND): 1.95 | ER, enhancement ratio (porcine skin [6]; permeant TH): 3.06

Cn1c(=O)c2[nH]cnc2n(C)c1=O [TH, theophylline]
logP [11]: −0.02 | solubility at 48 h [4]: 20000 ± 620 µg/mL | solubility in PBS ([7]; ref 25): 7650 µg/mL (≈ 42.5 mM)

CCCCCCCCCCCCOC(=O)CCCCCN.CCCCCCCCCCCCOC(=O)CCCCCNC(=O)O [Transkarbam 12]
IC50 ([1]; ref 29): 21 µM

dodecyl amino glucoside
IC50 ([1]; ref 34): 24 µM
